# Target: T1, hFXR (Homo sapiens, UniProt Q96RI1)
# T1 construct: expressed in transfected cells; host or cells: CV-1 cells
# T1 sequence (Q96RI1 1-486): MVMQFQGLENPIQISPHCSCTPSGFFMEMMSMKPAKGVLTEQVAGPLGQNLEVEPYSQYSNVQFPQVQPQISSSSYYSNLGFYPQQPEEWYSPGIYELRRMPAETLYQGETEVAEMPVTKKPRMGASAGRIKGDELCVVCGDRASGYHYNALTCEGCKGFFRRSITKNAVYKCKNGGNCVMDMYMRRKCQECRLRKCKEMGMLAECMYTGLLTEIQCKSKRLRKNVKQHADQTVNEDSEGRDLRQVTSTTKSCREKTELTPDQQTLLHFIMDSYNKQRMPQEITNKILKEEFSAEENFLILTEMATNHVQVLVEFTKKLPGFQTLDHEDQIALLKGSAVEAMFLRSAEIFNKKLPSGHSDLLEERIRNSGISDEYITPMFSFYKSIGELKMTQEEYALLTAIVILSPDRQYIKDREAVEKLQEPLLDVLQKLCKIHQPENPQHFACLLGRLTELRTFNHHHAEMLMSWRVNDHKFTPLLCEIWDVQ
# T1 sequence (P19793 1-462 partner): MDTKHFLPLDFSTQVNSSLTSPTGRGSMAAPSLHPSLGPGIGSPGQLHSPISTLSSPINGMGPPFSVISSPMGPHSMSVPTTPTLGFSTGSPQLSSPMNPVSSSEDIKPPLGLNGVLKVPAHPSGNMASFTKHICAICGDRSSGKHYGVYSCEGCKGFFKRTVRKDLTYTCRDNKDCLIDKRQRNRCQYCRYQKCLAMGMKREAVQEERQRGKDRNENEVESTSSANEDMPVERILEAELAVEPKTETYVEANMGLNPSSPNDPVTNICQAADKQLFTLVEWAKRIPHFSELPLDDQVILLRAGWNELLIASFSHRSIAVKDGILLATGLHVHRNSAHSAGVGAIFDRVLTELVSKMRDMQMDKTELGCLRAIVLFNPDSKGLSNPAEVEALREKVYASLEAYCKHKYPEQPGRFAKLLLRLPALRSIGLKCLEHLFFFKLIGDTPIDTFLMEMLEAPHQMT
# Experiment: In Vitro FXR Assay (TK): TK-ECRE-luc reporter in transfected CV-1 cells
# Assay type: cell-based
# Settings: 18 hrs incubation, luminescence
# Summary of the method: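 Reporter gene assay: CV-1 cells co-expressing hFXR, hRXR, TK-ECRE-luc and pCMX-YFP after overnight transfection in charcoal-stripped serum. Treatment with serially diluted compounds lasted 18 hrs at 37 °C, followed by cell lysis and a luminescence measurement.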
row,EC50,Compound
1,≤ 50 nM,"COc1ccc(C23CCC(CN(c4cc(-c5nc(C(C)C)no5)ccn4)C(=O)[C@H]4CC[C@H](OC(=O)N5CC(O)C5)CC4)(CC2)CC3)cc1C [Compound 26.13, 4-((4-(3-isopropyl-1,2,4-oxadiazol-5-yl)pyridin-2-yl)((4-(4-methoxy-3-methylphenyl)bicyclo[2.2.2]octan-1-yl)methyl)carbamoyl)cyclohexyl trans-3-hydroxyazetidine-1-carboxylate]"
2,≤ 50 nM,"COc1ccc(C23CCC(CN(c4cc(-c5noc(C(C)C)n5)ccn4)C(=O)[C@H]4CC[C@H](OC(=O)N5CC(O)C5)CC4)(CC2)CC3)cc1C [Compound 26.14, 4-((4-(5-Isopropyl-1,2,4-oxadiazol-3-yl)pyridin-2-yl)((4-(4-methoxy-3-methylphenyl)bicyclo[2.2.2]octan-1-yl)methyl)carbamoyl)cyclohexyl trans-3-hydroxyazetidine-1-carboxylate]"
3,≤ 50 nM,"CC(C)n1cc(-c2ccnc(N(CC34CCC(C5CCCCC5)(CC3)CC4)C(=O)[C@H]3CC[C@H](OC(=O)N4CC(O)C4)CC3)c2)cn1 [Compound 26.15, 4-(((4-Cyclohexylbicyclo[2.2.2]octan-1-yl)methyl)(4-(1-isopropyl-1H-pyrazol-4-yl)pyridin-2-yl)carbamoyl)cyclohexyl trans-3-hydroxyazetidine-1-carboxylate]"
4,≤ 50 nM,"COc1ccc(C23CCC(CN(c4cc(-c5nnn(C(C)C)n5)ccn4)C(=O)[C@H]4CC[C@H](OC(=O)N5CC(O)C5)CC4)(CC2)CC3)cc1C [Compound 26.16, 4-((4-(2-Isopropyl-2H-tetrazol-5-yl)pyridin-2-yl)((4-(4-methoxy-3-methylphenyl)bicyclo[2.2.2]octan-1-yl)methyl)carbamoyl)cyclohexyl trans-3-hydroxyazetidine-1-carboxylate]"
5,1000 to 10000 nM,"COc1ccc(C23CCC(CN(c4cc(-n5nnc(C(C)C)n5)ccn4)C(=O)[C@H]4CC[C@H](OC(=O)N5CC(O)C5)CC4)(CC2)CC3)cc1C [Compound 26.17, 4-((4-(5-Isopropyl-2H-tetrazol-2-yl)pyridin-2-yl)((4-(4-methoxy-3-methylphenyl)bicyclo[2.2.2]octan-1-yl)methyl)carbamoyl)cyclohexyl trans-3-hydroxyazetidine-1-carboxylate]"
6,1000 to 10000 nM,"COc1ccc(C23CCC(CN(C(=O)C4CCC(OC(=O)N5CC(O)C5)CC4)c4cc(C5CCCN(C(C)C)C5)ccn4)(CC2)CC3)cc1C (stereo not drawn) [Compound 26.18, 4-((4-(1-Isopropylpiperidin-3-yl)pyridin-2-yl)((4-(4-methoxy-3-methylphenyl)bicyclo[2.2.2]octan-1-yl)methyl)carbamoyl)cyclohexyl trans-3-hydroxyazetidine-1-carboxylate]"
7,50 to 1000 nM,"CC(C)n1cc(-c2ccnc(N(CC34CCC(C5CCC(C)(C)CC5)(CC3)CC4)C(=O)[C@H]3CC[C@H](OC(=O)N4CC(O)C4)CC3)c2)cn1 [Compound 26.19, 4-(((4-(4,4-Dimethylcyclohexyl)bicyclo[2.2.2]octan-1-yl)methyl)(4-(1-isopropyl-1H-pyrazol-4-yl)pyridin-2-yl)carbamoyl)cyclohexyl trans-3-hydroxyazetidine-1-carboxylate]"
8,≤ 50 nM,"COc1ccc(C23CCC(CN(c4cc(-c5cnn(C(C)C)c5)ccn4)C(=O)[C@H]4CC[C@H](OC(=O)N5CC(O)C5)CC4)(CC2)CC3)nc1C [Compound 26.20, 4-((4-(1-Isopropyl-1H-pyrazol-4-yl)pyridin-2-yl)((4-(5-methoxy-6-methylpyridin-2-yl)bicyclo[2.2.2]octan-1-yl)methyl)carbamoyl)cyclohexyl trans-3-hydroxyazetidine-1-carboxylate]"
9,≤ 50 nM,"COc1ccc(C23CCC(CN(c4cc(-c5cnn(C6CCSCC6)c5)ccn4)C(=O)[C@H]4CC[C@H](OC(=O)N5CC(O)C5)CC4)(CC2)CC3)cc1C [Compound 26.21, 4-(((4-(4-Methoxy-3-methylphenyl)bicyclo[2.2.2]octan-1-yl)methyl)(4-(1-(tetrahydro-2H-thiopyran-4-yl)-1H-pyrazol-4-yl)pyridin-2-yl)carbamoyl)cyclohexyl trans-3-hydroxyazetidine-1-carboxylate]"
10,1000 to 10000 nM,"COc1ccc(C23CCC(CN(c4cc(-c5cnn(C6CC[S+]([O-])CC6)c5)ccn4)C(=O)[C@H]4CC[C@H](OC(=O)N5CC(O)C5)CC4)(CC2)CC3)cc1C (stereo partly drawn) [Compound 26.22, 4-(((4-(4-Methoxy-3-methylphenyl)bicyclo[2.2.2]octan-1-yl)methyl)(4-(1-(1-oxidotetrahydro-2H-thiopyran-4-yl)-1H-pyrazol-4-yl)pyridin-2-yl)carbamoyl)cyclohexyl trans-3-hydroxyazetidine-1-carboxylate]"
11,1000 to 10000 nM,"COc1ccc(C23CCC(CN(c4cc(-c5cnn(C6CCS(=O)(=O)CC6)c5)ccn4)C(=O)[C@H]4CC[C@H](OC(=O)N5CC(O)C5)CC4)(CC2)CC3)cc1C [Compound 26.23, 4-((4-(1-(1,1-Dioxidotetrahydro-2H-thiopyran-4-yl)-1H-pyrazol-4-yl)pyridin-2-yl)((4-(4-methoxy-3-methylphenyl)bicyclo[2.2.2]octan-1-yl)methyl)carbamoyl)cyclohexyl trans-3-hydroxyazetidine-1-carboxylate]"
12,≤ 50 nM,"COc1ccc(C23CCC(CN(C(=O)N4CCC(OC(=O)N5CC(O)C5)CC4)c4cc(-c5cnn(C(C)C)c5)ccn4)(CC2)CC3)cc1C [Compound 27, 1-((4-(1-Isopropyl-1H-pyrazol-4-yl)pyridin-2-yl)((4-(4-methoxy-3-methylphenyl)bicyclo[2.2.2]octan-1-yl)methyl)carbamoyl)piperidin-4-yl 3-hydroxyazetidine-1-carboxylate]"

# Reference: patent US20220056019A1, “FARNESOID X RECEPTOR AGONISTS AND USES THEREOF” (Metacrine, Inc., priority 2018, published 2022)
